Results published in patent US20230416248A1, “COMPOUNDS AND USES THEREOF” (Foghorn Therapeutics Inc., priority 2020, published 2023).
Where two headings read alike, the source gives them in different places.

Key:
[1] = target: T1, BRM (Homo sapiens, UniProt P51531); assay: ATPase catalytic activity of BRM, ADP-Glo in vitro biochemical assay; conditions: for IC50: 30 nM BRM, 400 μM ATP; for Ratio* (BRG1 IC50 (μM) divided by BRM IC50 (μM)): selectivity ratio BRG1 IC50 / BRM IC50
T1 construct: made in house; host or cells: High Five insect cells
Method in brief: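 Recombinant BRM (30 nM) hydrolysed 400 μM ATP with 20 nM salmon sperm DNA in pH 8 Tris buffer containing 20 mM MgCl2, 50 mM NaCl, 0.1% Tween-20 and 1 mM DTT, 1 h at room temperature. ADP formed was quantified by ADP-Glo luminescence.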

[2] = target: T2, BRG-1 (Homo sapiens, UniProt P51532); assay: ATPase catalytic activity of BRG-1, ADP-Glo in vitro biochemical assay; conditions: 30 nM BRG-1, 400 μM ATP, read-out: BRG1 IC50
T2 construct: made in house; host or cells: High Five insect cells
Experimental: The ATPase catalytic activity of BRM or BRG-1 was measured by an in vitro biochemical assay using ADP-Glo™ (Promega, V9102). The ADP-Glo™ kinase assay is performed in two steps once the reaction is complete. The first step is to deplete any unconsumed ATP in the reaction. The second step is to convert the reaction product ADP to ATP, which will be utilized by the luciferase to generate luminesce and be detected by a luminescence reader, such as Envision.
Then, following addition of 5 μL of ADP-Glo™ Reagent provided in the kit, the reaction incubates at room temperature for 40 minutes. Then, 10 μL of Kinase Detection Reagent provided in the kit is added to convert ADP to ATP, and the reaction incubates at room temperature for 60 minutes. Finally, luminescence measurement is collected with a plate-reading luminometer, such as Envision.

[3] = ATPase catalytic activity, ADP-Glo

T1 sequence (P51531 whole entry): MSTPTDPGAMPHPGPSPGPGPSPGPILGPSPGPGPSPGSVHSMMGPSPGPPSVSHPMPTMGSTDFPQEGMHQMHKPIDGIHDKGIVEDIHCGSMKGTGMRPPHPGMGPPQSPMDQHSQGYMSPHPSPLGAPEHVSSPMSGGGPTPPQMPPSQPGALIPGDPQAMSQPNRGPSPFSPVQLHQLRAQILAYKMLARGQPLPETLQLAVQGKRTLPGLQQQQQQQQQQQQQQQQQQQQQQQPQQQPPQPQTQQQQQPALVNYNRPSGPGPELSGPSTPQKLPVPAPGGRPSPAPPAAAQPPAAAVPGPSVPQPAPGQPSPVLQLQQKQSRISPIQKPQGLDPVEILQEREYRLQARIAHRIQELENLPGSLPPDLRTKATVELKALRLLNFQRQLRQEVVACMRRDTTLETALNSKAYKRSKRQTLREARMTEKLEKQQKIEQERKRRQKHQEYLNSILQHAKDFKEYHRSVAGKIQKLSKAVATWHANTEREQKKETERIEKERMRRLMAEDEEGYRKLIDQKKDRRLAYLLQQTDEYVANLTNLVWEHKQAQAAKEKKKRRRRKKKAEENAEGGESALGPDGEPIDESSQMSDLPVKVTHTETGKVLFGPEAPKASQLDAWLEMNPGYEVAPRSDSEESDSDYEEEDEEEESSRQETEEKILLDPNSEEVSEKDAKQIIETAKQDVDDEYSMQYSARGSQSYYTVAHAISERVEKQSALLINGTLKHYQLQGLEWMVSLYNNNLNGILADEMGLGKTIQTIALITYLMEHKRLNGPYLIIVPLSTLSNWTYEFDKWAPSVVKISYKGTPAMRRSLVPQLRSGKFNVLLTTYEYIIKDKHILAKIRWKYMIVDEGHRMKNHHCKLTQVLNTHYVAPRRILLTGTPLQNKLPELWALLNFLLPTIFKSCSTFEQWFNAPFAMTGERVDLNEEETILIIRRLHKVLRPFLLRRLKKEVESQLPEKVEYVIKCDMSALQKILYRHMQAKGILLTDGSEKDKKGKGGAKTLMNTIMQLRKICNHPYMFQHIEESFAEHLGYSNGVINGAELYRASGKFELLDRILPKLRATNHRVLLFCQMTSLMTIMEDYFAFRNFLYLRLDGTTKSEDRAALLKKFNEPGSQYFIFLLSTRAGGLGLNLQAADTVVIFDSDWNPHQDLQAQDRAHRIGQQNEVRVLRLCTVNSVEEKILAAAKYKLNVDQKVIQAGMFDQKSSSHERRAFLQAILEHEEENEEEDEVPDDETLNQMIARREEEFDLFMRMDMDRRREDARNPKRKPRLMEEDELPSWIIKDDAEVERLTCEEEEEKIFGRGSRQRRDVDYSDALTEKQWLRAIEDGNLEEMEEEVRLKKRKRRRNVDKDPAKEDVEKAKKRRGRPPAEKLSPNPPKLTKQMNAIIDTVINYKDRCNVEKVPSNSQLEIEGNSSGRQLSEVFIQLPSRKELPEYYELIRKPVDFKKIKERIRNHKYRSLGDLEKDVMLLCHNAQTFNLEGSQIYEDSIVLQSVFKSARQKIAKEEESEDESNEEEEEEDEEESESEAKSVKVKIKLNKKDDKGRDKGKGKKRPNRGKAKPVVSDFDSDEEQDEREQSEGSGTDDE
T2 sequence (P51532 whole entry): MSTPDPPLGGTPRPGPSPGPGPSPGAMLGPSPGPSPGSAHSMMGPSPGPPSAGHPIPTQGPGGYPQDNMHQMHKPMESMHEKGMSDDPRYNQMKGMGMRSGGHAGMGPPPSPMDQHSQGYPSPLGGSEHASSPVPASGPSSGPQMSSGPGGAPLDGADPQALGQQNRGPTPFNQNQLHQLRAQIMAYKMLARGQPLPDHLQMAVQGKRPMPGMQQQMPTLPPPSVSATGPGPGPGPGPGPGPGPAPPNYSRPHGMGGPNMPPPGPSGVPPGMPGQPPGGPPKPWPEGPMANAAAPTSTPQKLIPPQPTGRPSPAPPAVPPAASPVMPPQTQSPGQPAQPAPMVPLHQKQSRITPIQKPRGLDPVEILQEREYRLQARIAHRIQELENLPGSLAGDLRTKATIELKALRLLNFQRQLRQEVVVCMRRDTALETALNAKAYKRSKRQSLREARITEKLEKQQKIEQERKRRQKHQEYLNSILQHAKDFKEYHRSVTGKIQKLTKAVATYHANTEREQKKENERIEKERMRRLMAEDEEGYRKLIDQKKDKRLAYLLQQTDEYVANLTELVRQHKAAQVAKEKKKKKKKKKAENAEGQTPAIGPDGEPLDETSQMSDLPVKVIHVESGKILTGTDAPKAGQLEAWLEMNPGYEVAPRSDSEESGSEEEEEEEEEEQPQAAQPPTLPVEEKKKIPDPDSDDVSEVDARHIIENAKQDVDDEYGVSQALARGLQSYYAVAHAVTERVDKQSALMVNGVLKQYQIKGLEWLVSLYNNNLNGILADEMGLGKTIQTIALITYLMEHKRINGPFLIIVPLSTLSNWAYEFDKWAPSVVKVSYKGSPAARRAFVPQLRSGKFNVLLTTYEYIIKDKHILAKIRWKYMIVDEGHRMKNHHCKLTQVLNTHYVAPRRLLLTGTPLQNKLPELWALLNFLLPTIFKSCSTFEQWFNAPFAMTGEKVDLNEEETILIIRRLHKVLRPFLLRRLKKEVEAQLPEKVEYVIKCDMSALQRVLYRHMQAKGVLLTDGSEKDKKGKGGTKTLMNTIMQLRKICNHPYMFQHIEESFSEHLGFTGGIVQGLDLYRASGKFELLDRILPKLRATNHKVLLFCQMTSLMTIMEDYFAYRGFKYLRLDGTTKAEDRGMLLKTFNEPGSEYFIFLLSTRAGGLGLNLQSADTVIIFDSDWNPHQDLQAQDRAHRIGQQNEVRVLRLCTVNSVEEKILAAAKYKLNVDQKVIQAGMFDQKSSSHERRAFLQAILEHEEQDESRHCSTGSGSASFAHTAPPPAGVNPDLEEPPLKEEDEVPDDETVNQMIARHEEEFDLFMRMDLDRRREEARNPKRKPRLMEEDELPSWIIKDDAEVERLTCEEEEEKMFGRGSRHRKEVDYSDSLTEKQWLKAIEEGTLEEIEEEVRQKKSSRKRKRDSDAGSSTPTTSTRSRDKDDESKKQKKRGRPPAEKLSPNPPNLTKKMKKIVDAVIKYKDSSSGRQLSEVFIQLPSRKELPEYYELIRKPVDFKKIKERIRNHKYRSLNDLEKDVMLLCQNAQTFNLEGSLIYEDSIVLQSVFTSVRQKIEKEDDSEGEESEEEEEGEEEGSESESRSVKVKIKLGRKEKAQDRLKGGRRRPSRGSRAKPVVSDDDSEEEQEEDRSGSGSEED

Row | IC50 ([1]; ADP-Glo ATPase assay) | Ratio* (BRG1 IC50 (μM) divided by BRM IC50 (μM)) [1] | IC50 ([2]; ADP-Glo ATPase assay) | IC50 [1, 3] | Ratio* ([1]; ratio of BRG1 IC50 to BRM IC50) | IC50 [2, 3] | Ratio* ([1]; ratio BRG1 IC50 / BRM IC50) | Compound
1 | 136 nM | 15.77 | 2140 nM |  |  |  |  | COc1nn([C@H]2C[C@H](F)C2)cc1-c1ccc2cnc(CNC(=O)c3ccc4c(c3)S(=O)(=O)CCOC4)cc2n1 [Compound 152]
2 | 316 nM | 15.84 | 5000 nM |  |  |  |  | CC(C)S(=O)(=O)c1cccc(C(=O)NCc2cc3nc(-c4cncc(C5CC5)n4)ccc3cn2)c1 [Compound 296]
3 |  |  |  | 13 nM | 14.45 | 189 nM |  | CCOC1CCS(=O)(=O)c2cc(C(=O)NCc3cc4nc(-c5cccc(N6CC(C)OC(C)C6)n5)ccc4cn3)ccc2C1 (stereo not drawn) [Compound 485]
4 |  |  |  | 34.2 nM | 8.38 | 287 nM |  | C[C@H]1CCN(C)c2nc(-c3ccc4cnc(CNC(=O)c5ccc6c(c5)S(=O)(=O)CCOC6)cc4n3)ccc21 [Compound 694]
5 |  |  |  | 16.9 nM | 9.70 | 164 nM |  | O=C(NCc1cc2nc(N3CCCc4ccc(Cl)nc43)ccc2cn1)c1ccc2c(c1)S(=O)(=O)CCOC2 [Compound 513]
6 |  |  |  | 4.1 nM | 14.47 | 58.6 nM |  | Cc1cnc2c(c1)CCCN2c1ccc2cnc(CNC(=O)c3cc(F)c4c(c3)S(=O)(=O)CCOC4)cc2n1 [Compound 395]
7 | 245 nM | 17.28 | 4230 nM |  |  |  |  | CS(=O)(=O)c1cc(C(=O)NCc2cc3nc(-c4cncc(C5CC5)n4)ccc3cn2)cc(F)c1Cl [Compound 272]
8 | 16.9 nM | 7.52 | 127 nM |  |  |  |  | COCCN1CCCc2ccc(-c3ccc4cnc(CNC(=O)c5ccc6c(c5)S(=O)(=O)CCOC6)cc4n3)nc21 [Compound 109]
9 | 6.5 nM | 3.66 | 23.8 nM |  |  |  |  | C[C@@H]1CN(c2cccc(-c3ccc4cnc(CNC(=O)c5cc(F)c6c(c5)S(=O)(=O)CCOC6)cc4n3)n2)C[C@H](C)O1 [Compound 240]
10 | 105 nM | 7.17 | 751 nM |  |  |  |  | O=C(NCc1cc2nc(-c3ccccc3OC(F)F)ccc2cn1)c1ccc2c(c1)S(=O)(=O)CCOC2 [Compound 250]
11 | 697 nM | 7.17 | 5000 nM |  |  |  |  | COC[C@H](C)S(=O)(=O)c1cccc(C(=O)NCc2cc3nc(-c4cncc(C5CC5)n4)ccc3cn2)c1 [Compound 260]
12 | 45.1 nM |  | 2370 nM |  |  |  | 52.48 | O=C(NCc1cc2nc(N3CCOc4ccc(C5CC(F)(F)C5)nc43)ccc2cn1)c1ccc2c(c1)S(=O)(=O)CCOC2 [Compound 828]
13 |  |  |  | 9.1 nM | 13.22 | 120 nM |  | CN(C[C@@H]1CCO1)c1cccc(-c2ccc3cnc(CNC(=O)c4ccc5c(c4)S(=O)(=O)CCOC5)cc3n2)n1 [Compound 382]
14 |  |  |  | 7.4 nM | 10.32 | 76.4 nM |  | Cc1cnc2c(c1C)CCCN2c1ccc2cnc(CNC(=O)c3ccc4c(c3)S(=O)(=O)CCOC4)cc2n1 [Compound 429]
15 | 395 nM |  | 3800 nM |  |  |  | 9.60 | O=C(NCc1cc2nc(N3CC4CC4c4cccnc43)ccc2cn1)c1ccc2c(c1)S(=O)(=O)CCOC2 (stereo not drawn) [Compound 855]
16 |  |  |  | 19.2 nM | 34.03 | 654 nM |  | C[C@H]1COCc2c(F)cc(C(=O)NCc3cc4nc(-c5cccc(C6CC6)n5)ccc4cn3)cc2S1(=O)=O [Compound 458]
17 |  |  |  | 156 nM | 18.87 | 2950 nM |  | C[C@@H]1CN(c2cccc(-c3ccc4cnc(CNC(=O)c5cc(F)c6c(c5)S(=O)(=O)[C@H](C)CN6C)cc4n3)n2)C[C@H](C)O1 [Compound 642]
18 |  |  |  | 25.2 nM | 8.46 | 213 nM |  | C[C@@H]1CN(c2cccc(-c3ccc4cnc(CNC(=O)c5ccc6c(c5)S(=O)(=O)CCO[C@@H]6C5CC5)cc4n3)n2)C[C@H](C)O1 [Compound 454]
19 |  |  |  | 9 nM | 14.00 | 126 nM |  | Cc1cnc2c(c1)N(C)CCN2c1ccc2cnc(CNC(=O)c3ccc4c(c3)S(=O)(=O)CCOC4)cc2n1 [Compound 618]
20 | 4.2 nM | 4.64 | 19.3 nM |  |  |  |  | C[C@@H]1CN(c2cccc(-c3ccc4cnc(CNC(=O)c5ccc6c(c5)S(=O)(=O)CCOC6)cc4n3)n2)C[C@H](C)O1 [Compound 282]
21 |  |  |  | 90.4 nM | 28.12 | 2540 nM |  | CC(F)(F)c1ccc2c(n1)N(c1ccc3cnc(CNC(=O)c4ccc5c(c4)S(=O)(=O)CCOC5)cc3n1)CCO2 [Compound 617]

Row | IC50 ([1]; ADP-Glo ATPase assay) | Ratio* (BRG1 IC50 (μM) divided by BRM IC50 (μM)) [1] | IC50 ([2]; ADP-Glo ATPase assay) | IC50 [1, 3] | Ratio* ([1]; ratio of BRG1 IC50 to BRM IC50) | IC50 [2, 3] | Ratio* ([1]; ratio BRG1 IC50 / BRM IC50) | Compound
22 | 22.2 nM |  | 567 nM |  |  |  | 25.51 | O=C(NCc1cc2nc(N3CCCc4ccc(OC5CC5)nc43)ccc2cn1)c1ccc2c(c1)S(=O)(=O)CCOC2 [Compound 746]
23 | 84 nM |  | 1050 nM |  |  |  | 12.50 | COc1ncccc1-c1ccc2cnc(CNC(=O)c3ccc4c(c3)S(=O)(=O)CCOC4)cc2n1 [Compound 808]
24 | 7.5 nM | 6.80 | 51.1 nM |  |  |  |  | C[C@@H]1CN(c2cccc(-c3ccc4cnc(CNC(=O)c5ccc6c(c5)S(=O)(=O)[C@@H](C)CCO6)cc4n3)n2)C[C@H](C)O1 [Compound 15]
25 | 38.1 nM |  | 477 nM |  |  |  | 12.52 | O=C(NCc1cc2nc(N3CCOc4c3cnc(C3CC3)c4F)ccc2cn1)c1ccc2c(c1)S(=O)(=O)CCOC2 [Compound 813]
26 |  |  |  | 23.3 nM | 8.27 | 193 nM |  | CC1CCc2ccc(-c3ccc4cnc(CNC(=O)c5ccc6c(c5)S(=O)(=O)CCOC6)cc4n3)nc2N1C (stereo not drawn) [Compound 414]
27 | 9.5 nM | 4.70 | 44.7 nM |  |  |  |  | CC1OCCS(=O)(=O)c2cc(C(=O)NCc3cc4nc(-c5cccc(N6C[C@@H](C)O[C@@H](C)C6)n5)ccc4cn3)ccc21 (stereo partly drawn) [Compound 54]
28 | 40 nM | 5.53 | 221 nM |  |  |  |  | O=C(NCc1cc2nc(-c3ccc4c(n3)N(CC(F)F)CC4)ccc2cn1)c1ccc2c(c1)S(=O)(=O)CCOC2 [Compound 119]
29 | 36.8 nM | 11.02 | 406 nM |  |  |  |  | COC[C@H](C)N(C)c1cccc(-c2ccc3cnc(CNC(=O)c4ccc5c(c4)S(=O)(=O)CCOC5)cc3n2)n1 [Compound 70]
30 |  |  |  | 20.4 nM | 23.51 | 478 nM |  | COCCn1ncc2c1CCCN2c1ccc2cnc(CNC(=O)c3ccc4c(c3)S(=O)(=O)CCOC4)cc2n1 [Compound 400]
31 |  |  |  | 11.2 nM | 5.69 | 63.9 nM |  | C[C@@H]1CN(c2cccc(-c3ccc4cnc(CNC(=O)c5ccc6c(c5)S(=O)(=O)CCC(F)(F)C6)cc4n3)n2)C[C@H](C)O1 [Compound 587]
32 | 10.5 nM |  | 99.6 nM |  |  |  | 9.44 | COc1ccc(F)c2c1CCCN2c1ccc2cnc(CNC(=O)c3ccc4c(c3)S(=O)(=O)CCOC4)cc2n1 [Compound 718]
33 |  |  |  | 27.7 nM | 19.00 | 525 nM |  | C[C@@H]1CN(c2cccc(-c3ccc4cnc(CNC(=O)c5ccc(COC6CC6)c(S(C)(=O)=O)c5)cc4n3)n2)C[C@H](C)O1 [Compound 578]
34 |  |  |  | 28.9 nM | 14.25 | 412 nM |  | O=C(NCc1cc2nc(N3CCCc4cc(Cl)cnc43)ccc2cn1)c1ccc2c(c1)S(=O)(=O)CCOC2 [Compound 588]
35 |  |  |  | 30.7 nM | 20.63 | 632 nM |  | CC1CN(c2cccc(-c3ccc4cnc(CNC(=O)c5ccc6c(c5)S(=O)(=O)C(C)COC6C)cc4n3)n2)CC(C)O1 (stereo not drawn) [Compound 540]
36 |  |  |  | 60.7 nM | 17.24 | 1050 nM |  | O=C(NCc1cc2nc(-c3cccc(OCC4CC(F)(F)C4)n3)ccc2cn1)c1ccc2c(c1)S(=O)(=O)CCOC2 [Compound 390]
37 | 9.8 nM |  | 176 nM |  |  |  | 17.95 | O=C(NCc1cc2nc(N3CCCc4cnc(OC5CC5)cc43)ccc2cn1)c1ccc2c(c1)S(=O)(=O)CCOC2 [Compound 852]
38 | 12.1 nM |  | 154 nM |  |  |  | 12.75 | Cc1cnc2c(c1)N(C1CC1)CCN2c1ccc2cnc(CNC(=O)c3ccc4c(c3)S(=O)(=O)CCOC4)cc2n1 [Compound 748]
39 |  |  |  | 122 nM | 6.83 | 832 nM |  | O=C(NCc1cc2nc(-c3ccc4c(n3)N3CCOCC3C4)ccc2cn1)c1ccc2c(c1)S(=O)(=O)CCOC2 (stereo not drawn) [Compound 466]
40 | 819 nM | 6.11 | 5000 nM |  |  |  |  | CS(=O)(=O)c1cc(C(=O)NCc2cc3nc(-c4cncc(C5CC5)n4)ccc3cn2)ccc1C1CC1 [Compound 266]
41 |  |  |  | 24.5 nM | 13.30 | 326 nM |  | COC[C@H]1C[C@@H]1N(C)c1cccc(-c2ccc3cnc(CNC(=O)c4ccc5c(c4)S(=O)(=O)CCOC5)cc3n2)n1 [Compound 312]
